Patent US20250230155A1 (Vanderbilt University, priority 2021, published 2025)

Biological target: T1, human mAChR M4 (Homo sapiens, UniProt P08173)
T1 construct: expressed in transfected cells
T1 sequence (P08173 1-479): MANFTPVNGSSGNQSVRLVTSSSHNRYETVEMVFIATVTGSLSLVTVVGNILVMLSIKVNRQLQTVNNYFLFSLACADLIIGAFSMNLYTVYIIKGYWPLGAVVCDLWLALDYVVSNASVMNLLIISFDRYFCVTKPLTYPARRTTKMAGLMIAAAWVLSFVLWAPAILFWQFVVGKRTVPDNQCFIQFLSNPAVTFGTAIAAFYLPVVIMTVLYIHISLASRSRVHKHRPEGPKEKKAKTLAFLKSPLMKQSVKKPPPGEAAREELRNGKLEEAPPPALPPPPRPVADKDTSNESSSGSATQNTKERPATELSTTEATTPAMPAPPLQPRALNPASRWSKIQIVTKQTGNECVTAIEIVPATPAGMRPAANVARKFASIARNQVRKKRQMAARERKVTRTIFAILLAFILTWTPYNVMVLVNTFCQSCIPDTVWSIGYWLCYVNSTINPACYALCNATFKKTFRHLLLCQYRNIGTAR
Test: mAChR M4 cell-based functional assay (calcium mobilization, CHO-K1 hM4-Gqi5 cells)
Details: for EC50: positive allosteric modulator activity, increase in the EC20 acetylcholine response, CHO-K1 hM4-Gqi5 cells, read-out: Human M4 EC50
How it was run: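 CHO-K1 cells stably expressing human M4 with chimeric Gqi5, loaded with Fluo-4 AM; compounds given as 11-point 1:3 curves and calcium flux read on FDSS at 1 Hz. Acetylcholine EC20 added at 144 s, EC80 at 230 s; agonist, PAM (EC20 potentiation) and antagonist (EC80 inhibition) EC50/Emax from four-parameter fits.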

[1] = CHO-K1, % ACh maximum at 30 μM, human M4

SMILES	Emax at 30 µM [1] [%]	EC50 [nM]	Emax [1] [%]	Emax (CHO-K1) [%]
Cc1c(Cl)nc(C(F)(F)F)nc1N1CCc2ncc(Nc3ccnn3C)cc2C1 [compound 247, 6-(6-chloro-5-methyl-2-(trifluoromethyl)pyrimidin-4-yl)-N-(1-methyl-1H-pyrazol-5-yl)-5,6,7,8-tetrahydro-1,6-naphthyridin-3-amine]	91	764		
Cc1c(C#N)nnc(N2CCc3ncccc3C2)c1C [compound 118, 6-(7,8-dihydro-5H-1,6-naphthyridin-6-yl)-4,5-dimethyl-pyridazine-3-carbonitrile]		2820		92
Cc1cc(C(=O)NCc2nc3ccccc3s2)cnc1N1CCc2ncccc2C1 [compound 125, N-(1,3-benzothiazol-2-ylmethyl)-6-(7,8-dihydro-5H-1,6-naphthyridin-6-yl)-5-methyl-pyridine-3-carboxamide]	78	856		
Cc1cc(C(=O)NCc2cnn3ccccc23)cnc1N1CCc2ncccc2C1 [compound 69, 6-(7,8-dihydro-5H-1,6-naphthyridin-6-yl)-5-methyl-N-(pyrazolo[1,5-a]pyridin-3-ylmethyl)pyridine-3-carboxamide]	80	2380		
Cc1cc(C(=O)NCC(C)C)cnc1N1CCc2ncc(-c3cn(C)nc3C)cc2C1 [Example 460, 6-(3-(1,3-dimethyl-1H-pyrazol-4-yl)-7,8-dihydro-1,6-naphthyridin-6(5H)-yl)-N-isobutyl-5-methylnicotinamide]	71	1830		
Cc1nc2c(c(N3CCc4ncc(C(F)(F)F)cc4C3)n1)CCCC2 [compound 268, 2-methyl-4-(3-(trifluoromethyl)-7,8-dihydro-1,6-naphthyridin-6(5H)-yl)-5,6,7,8-tetrahydroquinazoline]	68	4190		
Cc1cc(C#N)nnc1N1CCc2ncc(C3CC3)cc2C1 [Example 393, 6-(3-cyclopropyl-7,8-dihydro-1,6-naphthyridin-6(5H)-yl)-5-methylpyridazine-3-carbonitrile]		111		88
COC(=O)c1cnc(N2CCc3ncc(Br)cc3C2)c(C)c1 [compound 133, methyl 6-(3-bromo-7,8-dihydro-5H-1,6-naphthyridin-6-yl)-5-methyl-pyridine-3-carboxylate]		158		100
Cc1c(C#N)nnc(N2CCc3ncc(-c4ccn(CC5CC5)n4)cc3C2)c1C [Example 10]		240		56
Cc1c(C#N)nnc(N2CCc3ncc(-c4ccnnc4)cc3C2)c1C [compound 48, 4,5-dimethyl-6-(3-pyridazin-4-yl-7,8-dihydro-5H-1,6-naphthyridin-6-yl)pyridazine-3-carbonitrile]	82	1810		
Cc1nc(Cl)c(C)c(N2CCc3ncc(Nc4ccc(F)cc4F)cc3C2)n1 [compound 87, 6-(6-chloro-2,5-dimethyl-pyrimidin-4-yl)-N-(2,4-difluorophenyl)-7,8-dihydro-5H-1,6-naphthyridin-3-amine]	82	815		
Cc1cc(C(=O)NCc2cnc3ccccc3c2)cnc1N1CCc2ncc(C(F)(F)F)cc2C1 [Example 446, 5-methyl-N-(quinolin-3-ylmethyl)-6-(3-(trifluoromethyl)-7,8-dihydro-1,6-naphthyridin-6(5H)-yl)nicotinamide]	87	1140		
FC(F)(F)c1cnc2c(c1)CN(c1nc(Cl)nc3c1COC3)CC2 [compound 281, 2-chloro-4-(3-(trifluoromethyl)-7,8-dihydro-1,6-naphthyridin-6(5H)-yl)-5,7-dihydrofuro[3,4-d]pyrimidine]		3290		
Cc1cc(C(=O)N2CCOCC2)nnc1N1CCc2ncc(CC(F)(F)F)cc2C1 [Example 587, (5-methyl-6-(3-(2,2,2-trifluoroethyl)-7,8-dihydro-1,6-naphthyridin-6(5/)-yl)pyridazin-3-yl)(morpholino)methanone]	69	6540		
Cc1c(Cl)nc(C2CC2)nc1N1CCc2ncccc2C1 [compound 84, 6-(6-chloro-2-cyclopropyl-5-methyl-pyrimidin-4-yl)-7,8-dihydro-5H-1,6-naphthyridine]		2240		71

The next lines start with results.

Emax at 30 µM [1] [%]	EC50 [nM]	Emax [1] [%]	SMILES	Emax (CHO-K1) [%]
87	350		Cc1nc(C)c(C)c(N2CCc3ncc(C(F)(F)F)cc3C2)n1 [compound 235, 3-(trifluoromethyl)-6-(2,5,6-trimethylpyrimidin-4-yl)-5,6,7,8-tetrahydro-1,6-naphthyridine]	
83	292		Cc1nc(C)c(-c2cnc3c(c2)CN(c2nnc(C#N)c(C)c2C)CC3)s1 [compound 294, 6-(3-(2,4-dimethylthiazol-5-yl)-7,8-dihydro-1,6-naphthyridin-6(5H)-yl)-4,5-dimethylpyridazine-3-carbonitrile]	
87	265		Cc1cc(C(=O)NCc2nccs2)cnc1N1CCc2ncc(-c3ccn(C)n3)cc2C1 [compound 171, 5-methyl-6-[3-(1-methylpyrazol-3-yl)-7,8-dihydro-5H-1,6-naphthyridin-6-yl]-N-(thiazol-2-ylmethyl)pyridine-3-carboxamide]	
102	31		Cc1cc(C(=O)NCc2cncs2)nnc1N1CCc2ncc(-c3ccnn3C)cc2C1 [Example 516, 5-methyl-6-(3-(1-methyl-1H-pyrazol-5-yl)-7,8-dihydro-1,6-naphthyridin-6(5H)-yl)-N-(thiazol-5-ylmethyl)pyridazine-3-carboxamide]	
83	4		[2H]C1([2H])Cc2ncc(Nc3ccncc3F)cc2C([2H])([2H])N1c1nnc(C#N)c(C)c1C [Example 608, 6-(3-((3-fluoropyridin-4-yl)amino)-7,8-dihydro-1,6-naphthyridin-6(5H)-yl-5,5,7,7-d4)-4,5-dimethylpyridazine-3-carbonitrile]	
	273	67	Cc1cc(-c2cnc3c(c2)CN(c2nnc(C#N)c(C)c2C)CC3)ccn1 [Example 12]	
110	24		[2H]C1([2H])N(c2cnc3c(c2)CN(c2ncc(C#N)cc2C)CC3)c2ccnn2C([2H])([2H])C1([2H])[2H] [Example 417, 6-(3-(6,7-dihydropyrazolo[1,5-a]pyrimidin-4(5H)-yl-5,5,6,6,7,7-d6)-7,8-dihydro-1,6-naphthyridin-6(5H)-yl)-5-methylnicotinonitrile]	
89	145		Cc1cc(C(=O)NCc2nccs2)cnc1N1CCc2ncc(-c3cccnc3F)cc2C1 [compound 175, 6-[3-(2-fluoro-3-pyridyl)-7,8-dihydro-5H-1,6-naphthyridin-6-yl]-5-methyl-N-(thiazol-2-ylmethyl)pyridine-3-carboxamide]	
86	64		Cc1c(C#N)nnc(N2CCc3ncc(N4CCCn5nccc54)cc3C2)c1C [Example 342, 6-(3-(6,7-dihydropyrazolo[1,5-a]pyrimidin-4(5H)-yl)-7,8-dihydro-1,6-naphthyridin-6(5H)-yl)-4,5-dimethylpyridazine-3-carbonitrile]	
83	158		[2H]C1([2H])Cc2ncc(Nc3cccnc3C)cc2C([2H])([2H])N1c1nnc(C#N)cc1C [Example 604, 5-methyl-6-(3-((2-methylpyridin-3-yl)amino)-7,8-dihydro-1,6-naphthyridin-6(5H)-yl-5,5,7,7-d4)pyridazine-3-carbonitrile]	
58	666		Cc1c(C#N)nnc(N2CCc3ncc(-c4cc(F)nc(F)c4)cc3C2)c1C [compound 75, 6-[3-(2,6-difluoro-4-pyridyl)-7,8-dihydro-5H-1,6-naphthyridin-6-yl]-4,5-dimethyl-pyridazine-3-carbonitrile]	
113	64		Cc1cc(C(=O)N2CC3(COC3)C2)nnc1N1CCc2ncc(N3CCCn4nccc43)cc2C1 [Example 542, (6-(3-(6,7-dihydropyrazolo[1,5-a]pyrimidin-4(5H)-yl)-7,8-dihydro-1,6-naphthyridin-6(5H)-yl)-5-methylpyridazin-3-yl)(2-oxa-6-azaspiro[3.3]heptan-6-yl)methanone]	
76	465		Cc1cc(C#N)cnc1N1CCc2ncc(-c3cnn(CC(C)C)c3)cc2C1 [compound 112, 6-[3-(1-isobutylpyrazol-4-yl)-7,8-dihydro-5H-1,6-naphthyridin-6-yl]-5-methyl-pyridine-3-carbonitrile]	
86	361		Cc1nc(Cl)c(C)c(N2CCc3ncc(Nc4ccccc4F)cc3C2)n1 [compound 85, 6-(6-chloro-2,5-dimethyl-pyrimidin-4-yl)-N-(2-fluorophenyl)-7,8-dihydro-5H-1,6-naphthyridin-3-amine]	
83	48		Cc1cc(C(=O)N2CC3(C2)CC(F)(F)C3)nnc1N1CCc2ncc(N3CCCn4nccc43)cc2C1 [Example 555, (6,6-difluoro-2-azaspiro[3.3]heptan-2-yl)(6-(3-(6,7-dihydropyrazolo[1,5-a]pyrimidin-4(5H)-yl)-7,8-dihydro-1,6-naphthyridin-6(5H)-yl)-5-methylpyridazin-3-yl)methanone]	
